In general, IC50 refers to the concentration needed to halve the response being measured.

For this experiment, the target named is T1, Recombinant human KIF18A (1-467 His-tagged) protein (Homo sapiens, UniProt Q8NI77).
T1 construct: Recombinant human KIF18A (1-467 His-tagged) protein; His; made in house
T1 sequence (Q8NI77 1-467): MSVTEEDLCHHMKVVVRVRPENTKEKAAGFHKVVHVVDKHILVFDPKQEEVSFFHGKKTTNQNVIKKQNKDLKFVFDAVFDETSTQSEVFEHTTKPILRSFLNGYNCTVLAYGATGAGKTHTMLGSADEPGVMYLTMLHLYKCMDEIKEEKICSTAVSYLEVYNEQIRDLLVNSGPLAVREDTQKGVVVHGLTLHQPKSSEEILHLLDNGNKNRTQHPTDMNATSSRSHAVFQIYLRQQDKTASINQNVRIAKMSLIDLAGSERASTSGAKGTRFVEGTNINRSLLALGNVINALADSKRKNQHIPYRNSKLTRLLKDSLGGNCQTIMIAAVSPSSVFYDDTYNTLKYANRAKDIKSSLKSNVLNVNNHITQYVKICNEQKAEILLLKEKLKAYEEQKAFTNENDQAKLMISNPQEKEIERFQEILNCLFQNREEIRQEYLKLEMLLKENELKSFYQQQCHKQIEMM
T1 sequence (P02550 whole entry partner): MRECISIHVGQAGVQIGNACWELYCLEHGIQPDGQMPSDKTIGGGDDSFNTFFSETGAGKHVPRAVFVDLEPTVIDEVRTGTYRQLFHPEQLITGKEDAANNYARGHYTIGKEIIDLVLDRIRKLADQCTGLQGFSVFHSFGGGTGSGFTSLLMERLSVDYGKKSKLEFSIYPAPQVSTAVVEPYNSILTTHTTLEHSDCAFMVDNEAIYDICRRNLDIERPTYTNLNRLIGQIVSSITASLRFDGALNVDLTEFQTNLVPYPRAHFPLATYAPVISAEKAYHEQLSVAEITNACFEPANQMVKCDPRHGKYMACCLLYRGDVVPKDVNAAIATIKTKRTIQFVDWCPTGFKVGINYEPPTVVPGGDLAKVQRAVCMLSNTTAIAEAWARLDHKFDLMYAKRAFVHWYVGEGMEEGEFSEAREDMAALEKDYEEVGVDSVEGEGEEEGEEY
T1 sequence (P02554 whole entry partner): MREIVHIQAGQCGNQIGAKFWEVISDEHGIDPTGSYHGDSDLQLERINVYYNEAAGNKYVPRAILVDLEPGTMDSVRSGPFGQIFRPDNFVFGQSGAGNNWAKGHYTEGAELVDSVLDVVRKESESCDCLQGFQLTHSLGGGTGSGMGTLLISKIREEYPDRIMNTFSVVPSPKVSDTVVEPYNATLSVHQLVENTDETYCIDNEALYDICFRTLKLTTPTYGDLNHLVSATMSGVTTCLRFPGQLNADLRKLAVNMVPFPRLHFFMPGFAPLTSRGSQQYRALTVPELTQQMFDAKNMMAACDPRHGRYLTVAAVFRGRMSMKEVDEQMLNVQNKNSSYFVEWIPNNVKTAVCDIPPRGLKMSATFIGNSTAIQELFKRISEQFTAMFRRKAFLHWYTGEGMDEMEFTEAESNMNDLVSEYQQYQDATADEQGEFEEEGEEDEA
The experiment is described as follows: KIF18A Enzyme Assay: microtubule-stimulated ATPase activity (ADP-Glo). It is filed as biochemical. The note with it: 30 nM KIF18A, 75 μM ATP. An outline of the steps: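 ADP-Glo luminescence reports ADP produced by His-tagged human KIF18A motor domain (1-467, insect-cell expressed) with microtubules and ATP.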
With `Cc1noc(-c2cccc(NC(=O)c3ccc(NC(C)(C)CO)nc3N3CCC4(CC3)CC4)c2)n1` [Example 111-7, 6-((1-hydroxy-2-methylpropan-2-yl)amino)-N-(3-(3-methyl-1,2,4-oxadiazol-5-yl)phenyl)-2-(6-azaspiro[2.5]octan-6-yl)nicotinamide], the IC50 is 417 nM.
For `Cn1nccc1-c1cccc(NC(=O)c2ccc(NC(C)(C)CO)nc2N2CCC3(CC2)CC3)c1` [Example 111-8, 6-((1-hydroxy-2-methylpropan-2-yl)amino)-N-(3-(1-methyl-1H-pyrazol-5-yl)phenyl)-2-(6-azaspiro[2.5]octan-6-yl)nicotinamide] the value was 542 nM; for `Cn1ccnc1-c1cccc(NC(=O)c2ccc(NC(C)(C)CO)nc2N2CCC3(CC2)CC3)c1` [Example 111-9, 6-((1-hydroxy-2-methylpropan-2-yl)amino)-N-(3-(1-methyl-1H-imidazol-2-yl)phenyl)-2-(6-azaspiro[2.5]octan-6-yl)nicotinamide], 437 nM; for `Cc1ccc(NC(=O)c2ccc(NC(C)(C)CO)nc2N2CCC3(CC2)CC3)cc1-c1ccccn1` [Example 111-10, 6-((1-hydroxy-2-methylpropan-2-yl)amino)-N-(4-methyl-3-(pyridin-2-yl)phenyl)-2-(6-azaspiro[2.5]octan-6-yl)nicotinamide], 303 nM.
`Cc1ccc(NC(=O)c2ccc(NC(C)(C)CO)nc2N2CCC3(CC2)CC3)cc1-c1cccnc1` [Example 111-11, 6-((1-hydroxy-2-methylpropan-2-yl)amino)-N-(4-methyl-3-(pyridin-3-yl)phenyl)-2-(6-azaspiro[2.5]octan-6-yl)nicotinamide]: the IC50 is 306 nM.
For `Cc1ccc(NC(=O)c2ccc(NC(C)(C)CO)nc2N2CCC3(CC2)CC3)cc1-c1ccncc1` [Example 111-12, 6-((1-hydroxy-2-methylpropan-2-yl)amino)-N-(4-methyl-3-(pyridin-4-yl)phenyl)-2-(6-azaspiro[2.5]octan-6-yl)nicotinamide], the IC50 was 386 nM.
Under `Cc1cncc(-c2cc(NC(=O)c3ccc(NC(C)(C)CO)nc3N3CCC4(CC3)CC4)ccc2C)c1` [Example 111-13, 6-((1-hydroxy-2-methylpropan-2-yl)amino)-N-(4-methyl-3-(5-methylpyridin-3-yl)phenyl)-2-(6-azaspiro[2.5]octan-6-yl)nicotinamide] stands 165 nM; under `CC(C)(C)NS(=O)(=O)c1cc(NC(=O)c2ccc(NC(C)(C)CO)nc2N2CCC3(CC2)CC3)cc(-c2ccco2)c1` [Example 112, N-(3-(N-(tert-butyl)sulfamoyl)-5-(furan-2-yl)phenyl)-6-((1-hydroxy-2-methylpropan-2-yl)amino)-2-(6-azaspiro[2.5]octan-6-yl)nicotinamide], 170 nM; under `CC(C)(C)NS(=O)(=O)c1cc(NC(=O)c2ccc(NC(C)(C)CO)nc2N2CCC3(CC2)CC3)cc(C2CC2)c1` [Example 112-2, N-(3-(N-(tert-butyl)sulfamoyl)-5-cyclopropylphenyl)-6-((1-hydroxy-2-methylpropan-2-yl)amino)-2-(6-azaspiro[2.5]octan-6-yl)nicotinamide], 633 nM.
In the case of `CC(C)(C)NS(=O)(=O)c1cc(NC(=O)c2ccc(NC(C)(C)CO)nc2N2CCC3(CC2)CC3)cc(-c2cccnc2)c1` [Example 112-3, N-(3-(N-(tert-butyl)sulfamoyl)-5-(pyridin-3-yl)phenyl)-6-((1-hydroxy-2-methylpropan-2-yl)amino)-2-(6-azaspiro[2.5]octan-6-yl)nicotinamide], the IC50 was determined as 561 nM.
Regarding `CC(C)(C)NS(=O)(=O)c1cccc(NC(=O)c2ccc(CS(C)(=O)=O)nc2N2CCC3(CC2)CC3)c1` [Example 113, N-(3-(N-(tert-butyl)sulfamoyl)phenyl)-6-((methylsulfonyl)methyl)-2-(6-azaspiro[2.5]octan-6-yl)nicotinamide], the half-inhibitory concentration (IC50) is 103 nM.
Under `CC(C)(C)NS(=O)(=O)c1cccc(NC(=O)c2ccncc2N2CCC3(CC2)CC3)c1` [Example 114, N-(3-(N-(tert-butyl)sulfamoyl)phenyl)-3-(6-azaspiro[2.5]octan-6-yl)isonicotinamide] stands 114 nM.
For `O=C(Nc1cccc(S(=O)(=O)C2CCCC2)c1)c1ccncc1N1CCC2(CC1)CC2` [Example 114-1, N-(3-(cyclopentylsulfonyl)phenyl)-3-(6-azaspiro[2.5]octan-6-yl)isonicotinamide] the value was 253 nM; for `O=C(Nc1cccc(S(=O)(=O)C2CCCC2)c1)c1ccncc1N1CCC2(CC1)CC2(F)F` [Example 114-2, N-(3-(cyclopentylsulfonyl)phenyl)-3-(1,1-difluoro-6-azaspiro[2.5]octan-6-yl)isonicotinamide], 735 nM.
Under `Cc1ccc(NC(=O)c2ccncc2N2CCC3(CC2)CC3)cc1C(=O)N1CCCC(F)(F)C1` [Example 115, N-(3-(3,3-difluoropiperidine-1-carbonyl)-4-methylphenyl)-3-(6-azaspiro[2.5]octan-6-yl)isonicotinamide] stands 606 nM; under `O=C(Nc1ccc(Br)c(C(=O)N2CCCC(F)(F)C2)c1)c1ccncc1N1CCC2(CC1)CC2` [Example 115-1, N-(4-bromo-3-(3,3-difluoropiperidine-1-carbonyl)phenyl)-3-(6-azaspiro[2.5]octan-6-yl)isonicotinamide], 577 nM.
For `O=C(Nc1ccc(Cl)c(C(=O)N2CCCC(F)(F)C2)c1)c1ccncc1N1CCC2(CC1)CC2` [Example 115-2, N-(4-chloro-3-(3,3-difluoropiperidine-1-carbonyl)phenyl)-3-(6-azaspiro[2.5]octan-6-yl)isonicotinamide], the IC50 came to 735 nM.
Under `O=C(Nc1ccc(F)c(C(=O)N2CCCC(F)(F)C2)c1)c1ccncc1N1CCC2(CC1)CC2` [Example 115-3, N-(3-(3,3-difluoropiperidine-1-carbonyl)-4-fluorophenyl)-3-(6-azaspiro[2.5]octan-6-yl)isonicotinamide] stands 1670 nM.
Under `Cc1ccc(NC(=O)c2ccncc2N2CCC3(CC2)CC3)cc1C(=O)N1CCC(F)(F)CC1` [Example 115-4, N-(3-(4,4-difluoropiperidine-1-carbonyl)-4-methylphenyl)-3-(6-azaspiro[2.5]octan-6-yl)isonicotinamide] stands 1540 nM; under `O=C(Nc1cccc(C(=O)N2CCCC(F)(F)C2)c1)c1ccncc1N1CCC2(CC1)CC2` [Example 115-5, N-(3-(3,3-difluoropiperidine-1-carbonyl)phenyl)-3-(6-azaspiro[2.5]octan-6-yl)isonicotinamide], 1680 nM.

The values above are taken from patent publication US12540129B2, “KIF18A inhibitors” (AMGEN INC., priority 2019, dated 2026).
